From the kinase profiling compilation of Christmann-Franck et al. (2016) come the findings set out here.

Common to all, as to settings: compound 10.0 µM
Experiment [1] has as its system KIT (human), P10721 [A829P].
The next experiment deals with CDK8 (human) (UniProt P49336).
Experiment [2] concerns EGFR (human), P00533 [L861Q].
Experiment [3] relates to PIK3CA (human), P42336 [H1047L].
In experiment [4] the test system is EGFR (human), P00533 [L858R].
The test system of experiment [5] is PIK3CA (human), P42336 [H1047Y].
The next experiment deals with PIK3CA (human) (UniProt P42336).
The next experiment deals with CSF1R (human) (UniProt P07333).
The test system of experiment [6] is EGFR (human), P00533 [752-759 del].
Experiment [7] has as its system PIK3CA (human), P42336 [E542K].
Experiment [8] has as its system ABL1 (human), P00519 [E255K].
Experiment [9] relates to EGFR (human), P00533 [T790M/L858R].
The target of the next experiment is TIE1 (human) (UniProt P35590).
A further experiment has as its target EPHB4 (human) (UniProt P54760).
Experiment [10] has as its system EGFR (human), P00533 [A750P; 747-749 del].
For a further experiment, the target named is BRSK2 (human) (UniProt Q8IWQ3).
In experiment [11] the test system is EGFR (human), P00533 [747-751 del / S ins].
In experiment [12] the test system is PIK3CA (human), P42336 [I800L].
The subject of experiment [13] is PIK3CA (human), P42336 [E545A].
The next experiment deals with CLK3 (human) (UniProt P49761).
The test system of experiment [14] is KIT (human), P10721 [D816V].
The subject of experiment [15] is EGFR (human), P00533 [P753S; 747-752 del].
In another experiment the target is MYLK3 (human) (UniProt Q32MK0).
The target of another experiment is MAPK15 (human) (UniProt Q8TD08).
The target of a further experiment is AKT2 (human) (UniProt P31751).
Experiment [16] relates to FGFR3 (human), P22607 [G697C].
Another experiment concerns the target ANKK1 (human) (UniProt Q8NFD2).
The next experiment concerns the target CLK2 (human) (UniProt P49760).
The test system of experiment [17] is FLT3 (human), P36888 [D835Y].
The next experiment has as its target SRC (human) (UniProt P12931).
A further experiment addresses PIK3CG (human) (UniProt P48736).
The target of a further experiment is AURKB (human) (UniProt Q96GD4).
Experiment [18] relates to PIK3CA (human), P42336 [Q546K].
Experiment [19] deals with EGFR (human), P00533 [G719C].
The next experiment addresses CAMK2G (human) (UniProt Q13555).
Another experiment has as its target PAK2 (human) (UniProt Q13177).
The next experiment concerns the target HIPK2 (human) (UniProt Q9H2X6).
Experiment [20] deals with KIT (human), P10721 [D816H].
For experiment [21], the system named is PIK3CA (human), P42336 [E545K].
Another experiment has as its target KDR (human) (UniProt P35968).
The target in the next experiment is NEK1 (human) (UniProt Q96PY6).

Sequence of CLK3 (human) (P49761 whole entry, looked up): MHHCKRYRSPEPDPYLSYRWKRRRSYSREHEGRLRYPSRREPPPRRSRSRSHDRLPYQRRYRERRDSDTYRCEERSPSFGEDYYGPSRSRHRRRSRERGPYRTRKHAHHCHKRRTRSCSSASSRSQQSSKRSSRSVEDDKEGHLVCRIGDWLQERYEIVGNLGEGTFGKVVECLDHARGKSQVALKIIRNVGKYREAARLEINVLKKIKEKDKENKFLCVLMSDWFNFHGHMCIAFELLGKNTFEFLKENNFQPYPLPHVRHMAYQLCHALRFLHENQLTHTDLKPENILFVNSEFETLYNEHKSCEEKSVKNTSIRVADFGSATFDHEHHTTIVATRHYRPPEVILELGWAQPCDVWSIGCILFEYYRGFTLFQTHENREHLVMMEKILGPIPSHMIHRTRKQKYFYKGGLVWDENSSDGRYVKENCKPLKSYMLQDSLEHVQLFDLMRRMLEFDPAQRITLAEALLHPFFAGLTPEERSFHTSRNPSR
Sequence of FGFR3 (human), P22607 [G697C] (P22607 whole entry G697C, looked up): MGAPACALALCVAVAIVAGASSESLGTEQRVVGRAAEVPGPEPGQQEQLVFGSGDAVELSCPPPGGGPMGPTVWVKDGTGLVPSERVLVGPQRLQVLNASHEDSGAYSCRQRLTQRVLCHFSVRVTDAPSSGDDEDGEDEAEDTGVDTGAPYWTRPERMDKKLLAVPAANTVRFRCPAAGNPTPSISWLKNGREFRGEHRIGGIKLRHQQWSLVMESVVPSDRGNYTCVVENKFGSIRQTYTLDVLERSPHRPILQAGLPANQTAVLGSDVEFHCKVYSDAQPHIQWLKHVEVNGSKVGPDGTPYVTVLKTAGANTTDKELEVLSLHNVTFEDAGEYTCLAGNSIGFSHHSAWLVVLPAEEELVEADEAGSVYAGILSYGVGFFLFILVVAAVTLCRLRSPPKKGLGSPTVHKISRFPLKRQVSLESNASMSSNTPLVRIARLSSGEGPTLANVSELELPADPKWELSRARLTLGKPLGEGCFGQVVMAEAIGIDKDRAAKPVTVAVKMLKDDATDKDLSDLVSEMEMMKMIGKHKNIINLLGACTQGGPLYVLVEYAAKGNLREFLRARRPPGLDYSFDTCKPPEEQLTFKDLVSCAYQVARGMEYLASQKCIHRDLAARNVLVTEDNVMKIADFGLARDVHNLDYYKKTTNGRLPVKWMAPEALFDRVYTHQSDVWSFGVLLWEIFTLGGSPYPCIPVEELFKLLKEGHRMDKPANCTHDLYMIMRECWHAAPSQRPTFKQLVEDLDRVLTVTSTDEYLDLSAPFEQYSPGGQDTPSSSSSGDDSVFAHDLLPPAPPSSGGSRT
Sequence of CAMK2G (human) (Q13555 whole entry, looked up): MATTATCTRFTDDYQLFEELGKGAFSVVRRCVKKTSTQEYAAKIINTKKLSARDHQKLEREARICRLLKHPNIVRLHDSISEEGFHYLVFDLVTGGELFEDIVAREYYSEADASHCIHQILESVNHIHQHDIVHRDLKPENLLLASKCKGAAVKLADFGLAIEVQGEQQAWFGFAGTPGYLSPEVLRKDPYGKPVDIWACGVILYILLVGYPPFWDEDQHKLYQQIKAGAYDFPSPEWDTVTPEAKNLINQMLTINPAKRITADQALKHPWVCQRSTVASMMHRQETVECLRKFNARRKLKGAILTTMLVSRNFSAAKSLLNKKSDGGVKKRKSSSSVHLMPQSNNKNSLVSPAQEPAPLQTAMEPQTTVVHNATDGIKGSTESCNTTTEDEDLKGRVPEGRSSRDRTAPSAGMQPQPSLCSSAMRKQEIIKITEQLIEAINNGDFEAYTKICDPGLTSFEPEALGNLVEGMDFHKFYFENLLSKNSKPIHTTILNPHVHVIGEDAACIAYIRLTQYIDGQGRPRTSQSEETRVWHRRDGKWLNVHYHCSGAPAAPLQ
Sequence of BRSK2 (human) (Q8IWQ3 whole entry, looked up): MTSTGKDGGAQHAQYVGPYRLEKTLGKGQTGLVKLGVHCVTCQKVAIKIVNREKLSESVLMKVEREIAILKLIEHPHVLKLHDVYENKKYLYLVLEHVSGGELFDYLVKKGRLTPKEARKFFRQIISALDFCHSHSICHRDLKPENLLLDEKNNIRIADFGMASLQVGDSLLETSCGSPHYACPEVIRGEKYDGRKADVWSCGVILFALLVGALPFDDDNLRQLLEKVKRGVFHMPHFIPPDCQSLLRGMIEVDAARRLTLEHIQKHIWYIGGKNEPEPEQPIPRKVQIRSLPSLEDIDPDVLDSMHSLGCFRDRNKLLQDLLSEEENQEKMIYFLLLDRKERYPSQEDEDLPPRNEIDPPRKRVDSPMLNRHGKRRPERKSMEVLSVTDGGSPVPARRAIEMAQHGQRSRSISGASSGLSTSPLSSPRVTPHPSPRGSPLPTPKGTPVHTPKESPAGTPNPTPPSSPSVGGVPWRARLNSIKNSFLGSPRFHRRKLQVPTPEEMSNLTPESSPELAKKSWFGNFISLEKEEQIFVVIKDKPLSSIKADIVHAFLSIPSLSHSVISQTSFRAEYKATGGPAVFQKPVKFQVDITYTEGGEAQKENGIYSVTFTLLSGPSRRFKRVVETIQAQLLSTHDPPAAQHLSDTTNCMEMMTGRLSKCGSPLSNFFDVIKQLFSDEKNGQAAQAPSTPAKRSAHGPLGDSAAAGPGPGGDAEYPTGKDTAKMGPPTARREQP
Sequence of PIK3CA (human), P42336 [Q546K] (P42336 whole entry Q546K, looked up): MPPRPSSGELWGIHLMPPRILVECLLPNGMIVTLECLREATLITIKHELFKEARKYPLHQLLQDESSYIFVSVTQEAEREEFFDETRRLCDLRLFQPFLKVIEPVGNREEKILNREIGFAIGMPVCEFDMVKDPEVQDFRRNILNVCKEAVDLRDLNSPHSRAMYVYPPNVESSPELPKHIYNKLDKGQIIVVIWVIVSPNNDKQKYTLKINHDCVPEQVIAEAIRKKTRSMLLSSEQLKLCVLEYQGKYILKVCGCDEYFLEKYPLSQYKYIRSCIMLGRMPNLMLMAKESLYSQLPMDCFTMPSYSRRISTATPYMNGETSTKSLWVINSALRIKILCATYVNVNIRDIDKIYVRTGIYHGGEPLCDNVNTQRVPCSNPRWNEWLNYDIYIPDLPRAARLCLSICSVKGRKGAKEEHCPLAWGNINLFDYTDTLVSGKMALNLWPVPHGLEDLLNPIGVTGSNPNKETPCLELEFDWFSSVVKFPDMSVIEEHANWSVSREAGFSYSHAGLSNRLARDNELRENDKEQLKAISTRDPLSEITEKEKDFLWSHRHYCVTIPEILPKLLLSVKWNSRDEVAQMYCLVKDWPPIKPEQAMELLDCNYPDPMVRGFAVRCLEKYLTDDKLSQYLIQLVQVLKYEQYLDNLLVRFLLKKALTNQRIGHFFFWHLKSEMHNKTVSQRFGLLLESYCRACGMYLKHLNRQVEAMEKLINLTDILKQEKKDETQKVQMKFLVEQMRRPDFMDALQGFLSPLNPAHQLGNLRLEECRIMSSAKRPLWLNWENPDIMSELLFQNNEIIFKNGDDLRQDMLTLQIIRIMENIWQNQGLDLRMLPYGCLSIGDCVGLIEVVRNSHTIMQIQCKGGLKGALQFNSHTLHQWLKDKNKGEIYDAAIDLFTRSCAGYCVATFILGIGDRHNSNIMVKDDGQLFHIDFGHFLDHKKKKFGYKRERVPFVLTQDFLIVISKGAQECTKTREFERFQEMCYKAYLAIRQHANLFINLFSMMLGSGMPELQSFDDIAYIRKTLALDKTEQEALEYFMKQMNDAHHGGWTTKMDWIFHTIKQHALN
Sequence of ANKK1 (human) (Q8NFD2 whole entry, looked up): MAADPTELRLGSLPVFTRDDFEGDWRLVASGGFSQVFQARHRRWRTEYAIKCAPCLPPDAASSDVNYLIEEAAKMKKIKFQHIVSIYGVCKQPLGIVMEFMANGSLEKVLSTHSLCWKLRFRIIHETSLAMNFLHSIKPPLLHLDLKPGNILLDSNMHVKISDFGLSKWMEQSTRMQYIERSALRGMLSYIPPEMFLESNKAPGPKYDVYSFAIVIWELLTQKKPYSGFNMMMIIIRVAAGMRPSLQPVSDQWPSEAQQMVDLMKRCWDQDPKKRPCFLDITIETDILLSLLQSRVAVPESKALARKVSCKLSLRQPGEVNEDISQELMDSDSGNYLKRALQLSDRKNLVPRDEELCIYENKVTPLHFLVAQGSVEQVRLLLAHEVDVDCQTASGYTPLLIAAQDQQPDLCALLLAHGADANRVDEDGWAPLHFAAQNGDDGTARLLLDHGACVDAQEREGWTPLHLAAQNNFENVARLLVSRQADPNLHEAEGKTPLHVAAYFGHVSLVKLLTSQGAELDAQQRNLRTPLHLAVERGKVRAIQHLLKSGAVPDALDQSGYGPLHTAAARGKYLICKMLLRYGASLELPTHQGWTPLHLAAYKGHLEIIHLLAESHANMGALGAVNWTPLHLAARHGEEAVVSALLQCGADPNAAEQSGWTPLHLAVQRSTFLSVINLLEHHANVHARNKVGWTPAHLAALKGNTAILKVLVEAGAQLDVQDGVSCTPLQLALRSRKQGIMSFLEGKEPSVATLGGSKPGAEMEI
Sequence of PIK3CA (human), P42336 [H1047L] (P42336 whole entry H1047L, looked up): as the sequence (P42336 whole entry Q546K, looked up) above, with K546Q, H1047L counted along it
Sequence of PAK2 (human) (Q13177 whole entry, looked up): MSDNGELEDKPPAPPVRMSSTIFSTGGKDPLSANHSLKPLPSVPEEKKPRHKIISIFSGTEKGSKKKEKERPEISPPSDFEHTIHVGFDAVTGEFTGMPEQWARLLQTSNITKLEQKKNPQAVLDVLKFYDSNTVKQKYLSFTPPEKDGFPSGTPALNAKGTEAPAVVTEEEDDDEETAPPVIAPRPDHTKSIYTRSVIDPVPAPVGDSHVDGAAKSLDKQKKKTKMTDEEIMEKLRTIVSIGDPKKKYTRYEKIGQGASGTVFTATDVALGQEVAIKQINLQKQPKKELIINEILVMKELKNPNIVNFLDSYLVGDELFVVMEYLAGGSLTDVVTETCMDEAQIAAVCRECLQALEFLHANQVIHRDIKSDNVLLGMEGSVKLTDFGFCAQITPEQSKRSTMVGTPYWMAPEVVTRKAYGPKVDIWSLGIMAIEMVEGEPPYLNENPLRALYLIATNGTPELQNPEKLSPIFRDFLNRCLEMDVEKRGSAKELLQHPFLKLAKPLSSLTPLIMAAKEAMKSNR
Sequence of PIK3CA (human), P42336 [E545K] (P42336 whole entry E545K, looked up): as the sequence (P42336 whole entry Q546K, looked up) above, with E545K, K546Q counted along it

In the case of `CNC(=O)c1cc(Oc2ccc(NC(=O)Nc3ccc(Cl)c(C(F)(F)F)c3)cc2)cc[n+]1[O-]`, the per cent of control in [1] turned out to be 26%; on CDK8 (human) it was 0.6%; in [2] it was 74%; in [3], 98%; in experiment [4] it was 88%; in experiment [5] it was 100%. Besides, the per cent of control was determined as 95% at PIK3CA (human); 0% on CSF1R (human); 96% in [6]; 100% in [7]; 38% in [8]; 82% in [9]. For the same molecule, the per cent of control on TIE1 (human) worked out at 0.3%; on EPHB4 (human), 16%; in [10], 70%; on BRSK2 (human) it was 100%; in [11] it was 76%; in experiment [12], 100%. The per cent of control in experiment [13] worked out at 100%; on CLK3 (human) it was 100%; in experiment [14] it was 2.6%; in experiment [15], 77%; on MYLK3 (human), 2.8%; at MAPK15 (human), 0.6%. In addition, the per cent of control at AKT2 (human) worked out at 88%; in experiment [16] it was 50%; on ANKK1 (human), 58%; at CLK2 (human), 80%; in [17], 2.8%; at SRC (human) it was 53%. Moreover, the per cent of control at PIK3CG (human) came out at 82%; at AURKB (human), 0%; in experiment [18], 100%; in experiment [19], 80%; at CAMK2G (human), 96%; on PAK2 (human), 93%. The per cent of control on HIPK2 (human) stood at 20%; in experiment [20] it was 17%; in experiment [21] it was 100%; on KDR (human) it was 0.4%; at NEK1 (human) it was 84%.

On to `CNC(=O)c1cc(Oc2ccc(NC(=O)Nc3ccc(Cl)c(C(F)(F)F)c3)cc2)ccn1`, for which the per cent of control on BRSK2 (human) was found to be 98%; on CLK3 (human) it was 84%; in experiment [16] it was 25%; at CAMK2G (human), 100%.
